Measured values taken from ChEMBL document CHEMBL5131528, “2-Aminoquinazolines as LRRK2 Inhibitors for Treating Parkinson's Disease” (ACS Med Chem Lett, 2022).

Biological target: Leucine-rich repeat serine/threonine-protein kinase 2 (Homo sapiens, UniProt Q5S007, G2019S)
Assay: Inhibition of GST-tagged truncated human LRRK2 G2019S mutant using fluorescein labeled LRRKtide peptide as substrate preincubated for 15 mins followed by substrate addition and measured after 90 mins in presence of ATP at Km concentration by TR-FRET Lanthascreen assay

Sequence of Leucine-rich repeat serine/threonine-protein kinase 2 (Q5S007 whole entry G2019S, the tested form may be a part): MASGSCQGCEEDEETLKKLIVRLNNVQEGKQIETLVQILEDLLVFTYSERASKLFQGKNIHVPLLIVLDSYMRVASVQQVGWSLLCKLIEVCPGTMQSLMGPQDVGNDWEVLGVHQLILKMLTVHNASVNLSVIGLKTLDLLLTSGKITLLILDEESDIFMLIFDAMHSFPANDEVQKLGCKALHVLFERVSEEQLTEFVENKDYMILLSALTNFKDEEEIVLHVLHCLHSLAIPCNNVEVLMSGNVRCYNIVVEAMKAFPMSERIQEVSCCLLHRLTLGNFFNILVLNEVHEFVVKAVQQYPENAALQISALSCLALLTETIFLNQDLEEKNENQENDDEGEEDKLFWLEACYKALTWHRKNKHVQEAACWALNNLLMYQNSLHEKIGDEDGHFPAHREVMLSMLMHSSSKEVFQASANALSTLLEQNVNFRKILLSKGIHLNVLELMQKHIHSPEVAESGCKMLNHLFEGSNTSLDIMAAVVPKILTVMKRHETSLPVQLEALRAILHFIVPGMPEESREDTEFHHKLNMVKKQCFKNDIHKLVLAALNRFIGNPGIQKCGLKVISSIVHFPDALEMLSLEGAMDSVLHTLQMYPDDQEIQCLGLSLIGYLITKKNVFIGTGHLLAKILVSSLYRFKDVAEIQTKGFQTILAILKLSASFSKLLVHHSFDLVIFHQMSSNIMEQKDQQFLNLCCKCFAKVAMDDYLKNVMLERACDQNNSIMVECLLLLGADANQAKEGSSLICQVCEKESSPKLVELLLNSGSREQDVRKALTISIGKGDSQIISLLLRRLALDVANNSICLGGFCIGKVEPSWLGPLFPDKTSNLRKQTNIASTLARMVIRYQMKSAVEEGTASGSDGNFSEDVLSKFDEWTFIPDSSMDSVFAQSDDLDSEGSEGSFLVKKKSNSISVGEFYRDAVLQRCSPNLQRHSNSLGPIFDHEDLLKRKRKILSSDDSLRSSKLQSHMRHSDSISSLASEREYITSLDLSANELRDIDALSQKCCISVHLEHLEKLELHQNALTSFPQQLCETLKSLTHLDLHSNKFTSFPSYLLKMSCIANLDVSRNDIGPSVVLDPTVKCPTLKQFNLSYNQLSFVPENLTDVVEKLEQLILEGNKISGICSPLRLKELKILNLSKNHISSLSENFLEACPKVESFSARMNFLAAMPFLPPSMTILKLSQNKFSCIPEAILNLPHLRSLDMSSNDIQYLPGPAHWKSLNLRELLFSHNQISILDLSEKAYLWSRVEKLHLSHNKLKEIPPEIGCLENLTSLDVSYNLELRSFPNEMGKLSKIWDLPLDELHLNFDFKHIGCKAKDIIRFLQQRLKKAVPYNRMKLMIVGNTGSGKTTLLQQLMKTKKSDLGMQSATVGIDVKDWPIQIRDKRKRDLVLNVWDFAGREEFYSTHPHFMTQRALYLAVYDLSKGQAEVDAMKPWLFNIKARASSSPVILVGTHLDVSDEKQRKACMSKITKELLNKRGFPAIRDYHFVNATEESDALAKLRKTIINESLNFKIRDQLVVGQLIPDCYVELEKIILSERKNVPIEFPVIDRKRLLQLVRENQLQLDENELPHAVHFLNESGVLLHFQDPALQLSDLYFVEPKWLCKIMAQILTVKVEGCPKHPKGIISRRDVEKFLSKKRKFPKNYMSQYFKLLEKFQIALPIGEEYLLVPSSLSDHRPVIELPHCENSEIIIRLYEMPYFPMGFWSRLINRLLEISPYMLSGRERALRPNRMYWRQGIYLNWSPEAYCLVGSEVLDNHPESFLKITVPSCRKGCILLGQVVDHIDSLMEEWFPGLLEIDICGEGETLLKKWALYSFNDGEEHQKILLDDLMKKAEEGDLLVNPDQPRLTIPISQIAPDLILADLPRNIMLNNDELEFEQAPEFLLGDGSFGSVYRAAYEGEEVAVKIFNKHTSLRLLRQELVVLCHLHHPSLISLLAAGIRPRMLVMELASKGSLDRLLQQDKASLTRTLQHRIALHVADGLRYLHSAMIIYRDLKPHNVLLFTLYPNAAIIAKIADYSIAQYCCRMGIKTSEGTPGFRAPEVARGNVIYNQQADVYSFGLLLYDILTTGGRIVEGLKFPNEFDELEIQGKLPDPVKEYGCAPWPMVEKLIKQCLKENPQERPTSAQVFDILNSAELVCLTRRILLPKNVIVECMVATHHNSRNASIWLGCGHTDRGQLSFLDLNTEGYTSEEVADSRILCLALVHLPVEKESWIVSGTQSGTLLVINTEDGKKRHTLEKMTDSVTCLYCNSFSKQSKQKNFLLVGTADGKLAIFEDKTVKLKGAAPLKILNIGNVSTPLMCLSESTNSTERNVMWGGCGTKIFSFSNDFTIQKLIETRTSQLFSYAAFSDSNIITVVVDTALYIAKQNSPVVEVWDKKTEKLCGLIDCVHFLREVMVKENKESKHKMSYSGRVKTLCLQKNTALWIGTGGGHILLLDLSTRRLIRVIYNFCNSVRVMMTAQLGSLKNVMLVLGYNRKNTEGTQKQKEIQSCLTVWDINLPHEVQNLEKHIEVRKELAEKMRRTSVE

SMILES | IC50
Cc1c(Nc2ncc3cc(Cl)c(N4C(=O)OC[C@H]4C)cc3n2)cnn1C1CCOCC1 | 451 pM
CC1(O)CCN(c2cc3nc(Nc4cnn(C5CC5)c4Cl)ncc3cc2Cl)C1 (stereo unspecified) | 169 pM
CC1NN=CC1Nc1ncc2cc(Cl)c(N3CCC(C)(O)C(C)C3)cc2n1 (stereo unspecified) | 64.6 pM
CC(C)(C)Cn1cc(Nc2ncc3cc(Cl)c(N4CCC(C5(C)COC5)CC4)cc3n2)cn1 | 187 pM
Clc1cc2cnc(Nc3cnn(C45CC(C4)C5)c3Cl)nc2cc1N1CCC2(CCCO2)CC1 | 174 pM
CC(C)(O)CN1CCN(c2cc3nc(Nc4cnn(C5CC5)c4Cl)ncc3cc2Cl)CC1 | 75.9 pM
